# Where a name gives a salt, the structure may show the parent alone.
# How the values were obtained:
# SD rats [1] = experiment: Hindpaw incision model (mechanical allodynia, von Frey); type: in vivo; settings: 10 mg/kg
# Protocol: The surgery was conducted as reported previously ([Brennan et al., 1996]; [Whiteside et al., 2004]; [Biddlestone et al., 2007]). Male SD rats were anesthetized with isoflurane inhalation (3–5%) and the plantar surface of the left hindpaw was sterilized using iodophor solution. A 1-cm longitudinal incision was made on the plantar surface with no. Eleven scalpel blade, starting at 0.5 cm from the heel and extending toward the toes. The deep fascia was cut to expose the flexor digitorum brevis muscle. The muscle was elevated with curved forceps and incised longitudinally with the tip of a scalpel blade without disturbing the origin and insertion. […] The responses to mechanical stimulation of the hindpaws were recorded at 2 h post-surgery and the mechanical pain thresholds were defined as pre-dose values. After dividing into different groups according to the pre-dose values, the animals were administered vehicle (normal saline) or test compounds and the mechanical pain thresholds were measured at 15 min and 24 h post-dose.
# (§1) The rats were placed individually in Plexiglas chambers on a metallic mesh floor and allowed to acclimatize for 30–60 min ([Tsuda et al., 2011]). Mechanical allodynia was determined by probing the plantar surface of the hindpaw from below the mesh floor with a series of calibrated von Frey filaments (Stoelting) in log increments of force ([Lai et al., 2006]). […]
# C57BL/6J mice = experiment: Hot-plate test; type: in vivo; settings: 10 mg/kg
# Protocol: The hot-plate test was performed according to previous reports ([DeWire et al., 2013]; [Hill et al., 2018a]; [Wang et al., 2018]). Female C57BL/6J mice were individually placed on a hot plate at 56°C and the latency to licking or jumping was then recorded. A cut-off time of 30 s was imposed in order to prevent tissue damage. Before drug administration, the latency of each mouse was measured and defined as the pre-drug value. The animals with a pre-drug value of greater than 20 s were excluded.
# SD rats [2] = experiment: Chronic constriction injury (CCI) model (mechanical allodynia, von Frey); type: in vivo; settings: 10 mg/kg
# Protocol: The CCI surgery was performed as described previously with slight modifications ([Bennett and Xie, 1988]). Male SD rats were used in the CCI model. After isoflurane inhalation anesthesia, the femoral skin of the left hindlimb was incised and the sciatic nerve was exposed by blunt dissection of the biceps femoris muscle with a pair of forceps ([Chen et al., 2018]). A 2 mm-long polyethylene cuff was successively implanted around the nerve and the incision was then closed with skin stapler ([Bailey and Ribeiro-da-Silva, 2006]; [Balasubramanyan et al., 2006]). Animals were returned to their cages after recovering from anesthesia. Seventeen days after the surgery, the responses to mechanical stimulation of the hindpaws were measured before the compounds were administered. The rats were then divided into different groups according to the pre-administration values. After the animals were given vehicle or test compounds, the mechanical pain thresholds were taken at multiple time points.
# as §1
# mice = experiment: Locomotor activity test (sedation)
# ICR mice [3] = experiment: Measurement of respiration (whole body plethysmography); type: in vivo
# Protocol: A whole body plethysmography (DSI, US) was used to measure respiration in freely moving ICR mice (half male and half female) as described previously ([Manglik et al., 2016]; [Hill et al., 2018a]; [Hill et al., 2018b]) with some modifications. The respiratory frequency was recorded and then averaged for over 5-min period. The baseline values were recorded for 10 min before dosing. The mice were then removed from the chambers and given drugs, and respiration was then measured for 45 min.
# ICR mice [4] = experiment: Acetic acid-induced writhing test; type: in vivo; settings: 10 mg/kg s.c., 24 h post-dosing
# Protocol: ICR mice (half male and half female) were used in this assay. […] A writhe was defined as a wave of contraction of the abdominal musculature followed by extension of the hind limbs ([Wang et al., 2018]). The percentage inhibition of writhes was calculated by the following formula: % antinociception = (Nv−Nt)/Nv × 100, where Nv is the number of writhes in vehicle group and Nt is the number of writhes in treatment groups.
# ICR mice [5] = experiment: Compound 48/80-induced scratching test; type: in vivo; settings: 0.02 mg/kg
# Protocol: After acclimatization for 30–60 min in Plexiglas chambers, the male ICR mice were given vehicle or test compounds. Compound 48/80 (50 μg, 0.1 ml) was subcutaneously injected into the back of the neck at 15 min after drug administration ([Salaga et al., 2015]). The mice were immediately placed back into the chambers and the scratching behaviors were recorded for 30 min ([Kobayashi et al., 2003]; [Inan et al., 2009]; [Hachisuka et al., 2010]). One bout of scratching was defined as the mouse lifting its hindpaw towards the injection site to scratch until it either licked or bite the hindpaw or placed it back down on the floor ([Nojima and Carstens, 2003]). The percentage inhibition of scratching was calculated by the following formula: % antipruritis = (Bv−Bt)/Bv × 100, where Bv is the bouts of scratching in vehicle group and Bt is the bouts of scratching in treatment groups.
smiles,measurement,setting,value
"CN1CC[C@]23c4c5ccc(O)c4O[C@H]2[C@@H](O)C=C[C@H]3[C@H]1C5 [morphine, morphine sulfate]",effect on hindpaw incision-induced mechanical allodynia,SD rats [1]; 15 min after dosing,completely inhibited
same,effect on pain behaviors,SD rats [1]; 24 h post-dosing,no any effect
same,central antinociceptive effect in hot-plate test,C57BL/6J mice,almost complete efficacy
same,effect on CCI-induced mechanical allodynia,SD rats [2]; 15 min after dosing,completely inhibited
same,effect on pain behaviors,SD rats [2]; 24 h post-dosing,no any effect
same,effect on distance traveled,mice; 10 mg/kg,reduced remarkedly
same,effect on respiratory rate,ICR mice [3]; 10 mg/kg,significantly reduced
same,efficacy in writhing test,ICR mice [4],vanished
CC(C)C[C@@H](NC(=O)[C@@H](Cc1ccccc1)NC(=O)[C@H](N)Cc1ccccc1)C(=O)N[C@H](CCCCN)C(=O)N1CCC(N)(C(=O)O)CC1 [CR845],effect on locomotor activity / total distance traveled,"mice; 0.4 mg/kg, 15 min post-dosing",obvious decrease
same,effect on respiratory rate,ICR mice [3]; 2 mg/kg,significant decrease
same,time post-administration at which respiratory rate was significantly decreased,ICR mice [3]; 2 mg/kg,25 min
same,time post-drug at which effects on respiratory rate reached a peak,ICR mice [3]; 2 mg/kg,45 min
"CN(C(=O)/C=C/c1ccoc1)[C@@H]1CC[C@@]2(O)[C@H]3Cc4ccc(O)c5c4[C@@]2(CCN3CC2CC2)[C@H]1O5 [nalfurafine, nalfurafine hydrochloride]",inhibitory rate on scratching responses,ICR mice [5],94.30%

# Source: paper PMC8635029 (Frontiers in Pharmacology, 2021)
